Test results published in publication PMC7195606 (Pharmacology, biochemistry, and behavior, 2020).

How the values were obtained:
[1] = lower doses (<10 mg/kg IP); ref not given; cited from earlier work
C57Bl/6J mice [2] = experiment: Rectal; type: in vivo; details: for maximal decrease in temperature, females / maximal decrease in temperature, males / effect on body temperature, females / effect on body temperature, males / effect on body temperature: single IP injection; for effect on body temperature, females / effect on body temperature, males / effect on body temperature: ambient 22-23 °C; for effect on body temperature: males and females
C57Bl/6J mice [3] = experiment: Lethality; type: in vivo; details: 2 hr observation; for lethal effects: 20-160 mg/kg IP (MDPV up to 140 mg/kg)
C57Bl/6J mice [4] = experiment: Histological analysis of organs by hematoxylin-eosin staining; type: in vivo; details: at lethal doses
C57Bl/6J mice [5] = experiment: Organ weights normalized to body weight; type: in vivo; details: 20-160 mg/kg IP, normalized according to body weight
[6] = ref Miner et al., 2017, cited from earlier work; for decrease in temperature after the first injection: first injection of a binge regimen
[7] = ref Piao et al., 2015; cited from earlier work

Compound	maximal decrease in temperature, females (C57Bl/6J mice [2]; females)	time post injection with significant hypothermia vs baseline (C57Bl/6J mice [2]; males, 20 mg/kg IP) [min]	time post injection with significant hypothermia vs baseline (C57Bl/6J mice [2]; males, 80 mg/kg IP)	maximal decrease in temperature, males (C57Bl/6J mice [2]; males)	lethal effects (C57Bl/6J mice [3])	liver histology (hematoxylin-eosin) (C57Bl/6J mice [4])	effect on body temperature, females (C57Bl/6J mice [2]; females)	effect on body temperature, males (C57Bl/6J mice [2]; males)	normalized heart weight (C57Bl/6J mice [5])	normalized liver weight (C57Bl/6J mice [5])	other results
C[C@H](N)C(=O)c1ccccc1 [CAT, cathinone]	≈ 7 °C	20	20 min	≈ 5 °C	no lethal effects at any dose	–	–	–	–	–	hyperthermia [1]: ≈ 1 °C; time post injection with significant hypothermia vs baseline (C57Bl/6J mice [2]; females, 40 mg/kg IP): lasted the entire duration of the experiment; time post injection with significant hypothermia vs baseline (C57Bl/6J mice [2]; males, 40 mg/kg IP): 20 min
CN[C@@H](C)Cc1ccccc1 [MA, methamphetamine]	–	–	–	–	–	minor changes in cell morphology in the liver	no significant differences in temperature post-injection	increased body temperature	increased normalized heart weight in a dose dependent manner	significantly increased normalized liver weight	timepoint of return of temperature to baseline (C57Bl/6J mice [2]; males, 40 mg/kg IP): ≤ 100 min
CNC(C)C(=O)c1ccccc1 (stereo not shown) [MCAT, methcathinone]	≈ 7 °C	20	failed to show significance	≈ 3 °C	this occurred at the highest dose and only in one subject	–	–	–	–	–	hyperthermia [1]: ≈ 1 °C; time of peak hypothermic effect after injection (C57Bl/6J mice [2]; both males and females): 60 min; effect on body temperature (C57Bl/6J mice [2]): pronounced hypothermic effects; time post injection with significant hypothermia vs baseline (C57Bl/6J mice [2]; males, 120 mg/kg IP): did not identify an significant effects; time post injection with significant hypothermia vs baseline (C57Bl/6J mice [2]; males, 160 mg/kg IP): 60 min
CNC(C)Cc1ccc2c(c1)OCO2 (stereo not shown) [MDMA, 3,4-methylenedioxymethamphetamine]	–	–	–	–	–	minor changes in cell morphology in the liver	hypothermic effects	not significant at any dose	increased normalized heart weight in a dose dependent manner	did not significantly affect liver weight	decrease in temperature after the first injection [6]: 3 °C; LD50 as base (C57Bl/6J mice [3]; single IP injection, males and females pooled): 100.92 mg/kg
CCCC(C(=O)c1ccc2c(c1)OCO2)N1CCCC1 (stereo not shown) [MDPV, methylenedioxypyrovalerone]	≈ 2 °C	–	did not identify any significant differences	≈ 2 °C	no lethal effects at any dose	–	–	–	–	–	effects on temperature ([6]; 1 mg/kg IP): did not find effects; time post injection with significant hypothermia vs baseline (C57Bl/6J mice [2]; females, 80 mg/kg IP): 20 min; time post injection with significant hypothermia vs baseline (C57Bl/6J mice [2]; females, 100 mg/kg IP): 20 min; time post injection with significant hypothermia vs baseline (C57Bl/6J mice [2]; females, 120 mg/kg IP): 20 min; effect on body temperature (C57Bl/6J mice [2]): significant hypothermic effects in both males and females; time post injection with significant hypothermia vs baseline (C57Bl/6J mice [2]; males, 140 mg/kg IP): 20 min
CNC(C)C(=O)c1ccc(C)cc1 (stereo not shown) [MMC, 4-methyl-methcathinone]	≈ 6 °C	20	–	≈ 4 °C	–	minor changes in cell morphology in the liver	profound hypothermic effects	greatest temperature decreases in males compared to the five other drugs	increased normalized heart weight in a dose dependent manner	significantly increased normalized liver weight	time post injection with significant hypothermia vs baseline (C57Bl/6J mice [2]; males, 120 mg/kg IP): 20 min
CNC(C)C(=O)c1ccc2c(c1)OCO2 (stereo not shown) [methylone]	–	–	–	–	–	–	–	–	–	–	LD50 compared with MA or MDMA [7]: slightly lower than that of MA or MDMA; decrease in temperature after the first injection [6]: 4 °C
